Experimental data as given in ChEMBL document CHEMBL5291721, “A preclinical secondary pharmacology resource illuminates target-adverse drug reaction associations of marketed drugs” (Nat Commun, 2023).

Legend:
[1] = target: T1, Alpha-2A adrenergic receptor (Homo sapiens, UniProt P08913)
T1 sequence (P08913 whole entry): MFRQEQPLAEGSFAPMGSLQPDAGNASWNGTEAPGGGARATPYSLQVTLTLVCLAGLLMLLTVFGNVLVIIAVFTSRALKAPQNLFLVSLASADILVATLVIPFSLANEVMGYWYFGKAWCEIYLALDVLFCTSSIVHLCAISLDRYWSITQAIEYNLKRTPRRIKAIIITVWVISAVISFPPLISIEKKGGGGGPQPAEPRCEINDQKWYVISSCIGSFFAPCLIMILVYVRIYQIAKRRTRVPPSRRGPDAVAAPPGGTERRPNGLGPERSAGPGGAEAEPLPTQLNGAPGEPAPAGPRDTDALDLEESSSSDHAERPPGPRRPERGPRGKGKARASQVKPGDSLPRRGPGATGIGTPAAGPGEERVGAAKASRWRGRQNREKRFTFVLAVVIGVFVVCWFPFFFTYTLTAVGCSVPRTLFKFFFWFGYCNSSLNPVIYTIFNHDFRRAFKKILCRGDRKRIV

D(1A) dopamine receptor = D(1A) dopamine receptor (Homo sapiens, UniProt P21728)
Chain of D(1A) dopamine receptor (P21728 whole entry): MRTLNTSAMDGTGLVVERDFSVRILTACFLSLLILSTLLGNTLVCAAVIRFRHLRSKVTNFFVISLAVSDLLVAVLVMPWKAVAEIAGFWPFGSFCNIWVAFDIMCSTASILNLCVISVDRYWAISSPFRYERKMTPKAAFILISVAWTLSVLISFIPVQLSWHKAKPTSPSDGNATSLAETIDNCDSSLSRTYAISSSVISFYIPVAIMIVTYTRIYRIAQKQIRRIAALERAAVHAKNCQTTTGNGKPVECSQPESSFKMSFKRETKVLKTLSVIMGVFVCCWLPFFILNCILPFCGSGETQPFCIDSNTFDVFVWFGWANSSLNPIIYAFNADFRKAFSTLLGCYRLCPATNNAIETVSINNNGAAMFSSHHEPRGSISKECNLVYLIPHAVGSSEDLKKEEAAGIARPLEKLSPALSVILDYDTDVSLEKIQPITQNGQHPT

[2] = target: Gamma-aminobutyric acid receptor subunit alpha-1/alpha-2/beta-2/gamma-2 (Homo sapiens, UniProt P14867+P18507+P47869+P47870); format: protein-complex assay
Chain of Gamma-aminobutyric acid receptor subunit alpha-1/alpha-2/beta-2/gamma-2 (P14867 whole entry): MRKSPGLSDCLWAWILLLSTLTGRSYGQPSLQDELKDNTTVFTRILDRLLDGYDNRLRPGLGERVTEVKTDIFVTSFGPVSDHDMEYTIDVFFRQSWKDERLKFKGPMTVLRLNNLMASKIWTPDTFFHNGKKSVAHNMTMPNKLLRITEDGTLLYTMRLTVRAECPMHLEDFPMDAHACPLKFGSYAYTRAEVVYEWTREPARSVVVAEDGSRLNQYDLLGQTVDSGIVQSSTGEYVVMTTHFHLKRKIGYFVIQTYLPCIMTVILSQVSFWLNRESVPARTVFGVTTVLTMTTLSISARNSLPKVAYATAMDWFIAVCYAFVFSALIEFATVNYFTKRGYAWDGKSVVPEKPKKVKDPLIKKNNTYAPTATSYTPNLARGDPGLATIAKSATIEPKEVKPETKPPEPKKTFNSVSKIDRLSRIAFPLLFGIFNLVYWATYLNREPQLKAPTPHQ
Chain of Gamma-aminobutyric acid receptor subunit alpha-1/alpha-2/beta-2/gamma-2 (P47870 whole entry): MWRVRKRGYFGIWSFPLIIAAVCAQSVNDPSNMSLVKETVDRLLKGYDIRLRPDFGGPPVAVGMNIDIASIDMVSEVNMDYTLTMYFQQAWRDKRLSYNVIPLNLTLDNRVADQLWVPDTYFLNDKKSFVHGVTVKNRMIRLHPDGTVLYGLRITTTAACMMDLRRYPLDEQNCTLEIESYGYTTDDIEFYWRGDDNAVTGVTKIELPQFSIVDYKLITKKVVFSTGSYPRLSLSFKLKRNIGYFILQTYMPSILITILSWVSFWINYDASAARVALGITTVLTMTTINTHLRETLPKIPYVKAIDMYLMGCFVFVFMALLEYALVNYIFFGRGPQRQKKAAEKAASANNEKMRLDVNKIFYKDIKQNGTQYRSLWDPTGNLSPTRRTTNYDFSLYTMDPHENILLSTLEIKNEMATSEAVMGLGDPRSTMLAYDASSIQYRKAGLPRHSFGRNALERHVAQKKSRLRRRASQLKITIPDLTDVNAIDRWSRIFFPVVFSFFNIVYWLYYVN
Chain of Gamma-aminobutyric acid receptor subunit alpha-1/alpha-2/beta-2/gamma-2 (P18507 whole entry): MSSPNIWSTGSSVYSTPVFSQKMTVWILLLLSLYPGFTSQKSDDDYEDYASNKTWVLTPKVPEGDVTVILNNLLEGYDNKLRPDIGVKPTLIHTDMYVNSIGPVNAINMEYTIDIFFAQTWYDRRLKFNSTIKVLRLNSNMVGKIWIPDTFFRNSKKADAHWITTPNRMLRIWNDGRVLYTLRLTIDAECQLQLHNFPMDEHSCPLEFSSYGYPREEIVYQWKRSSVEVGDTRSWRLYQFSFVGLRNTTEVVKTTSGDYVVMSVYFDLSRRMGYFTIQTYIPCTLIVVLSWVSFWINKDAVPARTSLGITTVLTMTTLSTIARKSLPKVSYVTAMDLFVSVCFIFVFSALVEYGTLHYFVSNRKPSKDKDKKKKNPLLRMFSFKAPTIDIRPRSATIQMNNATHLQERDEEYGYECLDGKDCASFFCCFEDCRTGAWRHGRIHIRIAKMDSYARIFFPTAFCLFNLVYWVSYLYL
Chain of Gamma-aminobutyric acid receptor subunit alpha-1/alpha-2/beta-2/gamma-2 (P47869 whole entry): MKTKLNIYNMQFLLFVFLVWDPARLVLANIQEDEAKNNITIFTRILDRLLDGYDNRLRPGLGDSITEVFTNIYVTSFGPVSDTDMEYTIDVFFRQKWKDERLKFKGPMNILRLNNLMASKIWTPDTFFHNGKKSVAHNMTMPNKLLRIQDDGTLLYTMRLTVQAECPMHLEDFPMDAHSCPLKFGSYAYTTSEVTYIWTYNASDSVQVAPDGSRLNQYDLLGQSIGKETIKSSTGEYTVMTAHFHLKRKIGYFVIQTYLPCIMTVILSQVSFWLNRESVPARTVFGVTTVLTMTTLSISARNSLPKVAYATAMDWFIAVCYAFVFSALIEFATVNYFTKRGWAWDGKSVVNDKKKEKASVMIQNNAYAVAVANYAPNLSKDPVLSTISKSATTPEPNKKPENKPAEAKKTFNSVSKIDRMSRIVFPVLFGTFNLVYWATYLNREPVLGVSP

[3] = target: T2, Alpha-1A adrenergic receptor (Homo sapiens, UniProt P35348); format: functional, cell-based
T2 sequence (P35348 whole entry): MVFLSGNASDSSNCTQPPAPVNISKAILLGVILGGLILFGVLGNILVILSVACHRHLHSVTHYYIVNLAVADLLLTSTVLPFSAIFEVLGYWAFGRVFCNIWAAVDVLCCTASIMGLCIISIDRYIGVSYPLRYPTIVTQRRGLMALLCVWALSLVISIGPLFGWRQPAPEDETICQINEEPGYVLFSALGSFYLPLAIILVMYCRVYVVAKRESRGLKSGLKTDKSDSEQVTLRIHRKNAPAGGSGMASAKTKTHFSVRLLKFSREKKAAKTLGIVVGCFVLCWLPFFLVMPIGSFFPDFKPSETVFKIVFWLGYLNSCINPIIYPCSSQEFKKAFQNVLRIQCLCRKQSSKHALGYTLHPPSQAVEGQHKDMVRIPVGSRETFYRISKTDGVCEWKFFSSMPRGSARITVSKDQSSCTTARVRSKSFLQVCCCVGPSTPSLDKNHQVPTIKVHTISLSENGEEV

[4] = target: T3, 5-hydroxytryptamine receptor 1A (Homo sapiens, UniProt P08908)
T3 sequence (P08908 whole entry): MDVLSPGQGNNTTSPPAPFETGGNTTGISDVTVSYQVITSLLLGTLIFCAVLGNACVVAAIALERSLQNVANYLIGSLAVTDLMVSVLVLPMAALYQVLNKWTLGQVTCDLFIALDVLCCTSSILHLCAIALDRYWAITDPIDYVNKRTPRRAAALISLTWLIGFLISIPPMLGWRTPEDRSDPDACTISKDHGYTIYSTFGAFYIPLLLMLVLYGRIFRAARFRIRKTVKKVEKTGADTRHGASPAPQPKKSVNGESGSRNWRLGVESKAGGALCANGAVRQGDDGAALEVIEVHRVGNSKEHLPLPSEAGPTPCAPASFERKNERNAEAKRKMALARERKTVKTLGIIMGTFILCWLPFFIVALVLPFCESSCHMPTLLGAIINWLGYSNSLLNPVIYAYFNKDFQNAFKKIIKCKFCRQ

[5] = target: cGMP-inhibited 3',5'-cyclic phosphodiesterase 3A (Homo sapiens, UniProt Q14432); format: functional
Chain of cGMP-inhibited 3',5'-cyclic phosphodiesterase 3A (Q14432 whole entry): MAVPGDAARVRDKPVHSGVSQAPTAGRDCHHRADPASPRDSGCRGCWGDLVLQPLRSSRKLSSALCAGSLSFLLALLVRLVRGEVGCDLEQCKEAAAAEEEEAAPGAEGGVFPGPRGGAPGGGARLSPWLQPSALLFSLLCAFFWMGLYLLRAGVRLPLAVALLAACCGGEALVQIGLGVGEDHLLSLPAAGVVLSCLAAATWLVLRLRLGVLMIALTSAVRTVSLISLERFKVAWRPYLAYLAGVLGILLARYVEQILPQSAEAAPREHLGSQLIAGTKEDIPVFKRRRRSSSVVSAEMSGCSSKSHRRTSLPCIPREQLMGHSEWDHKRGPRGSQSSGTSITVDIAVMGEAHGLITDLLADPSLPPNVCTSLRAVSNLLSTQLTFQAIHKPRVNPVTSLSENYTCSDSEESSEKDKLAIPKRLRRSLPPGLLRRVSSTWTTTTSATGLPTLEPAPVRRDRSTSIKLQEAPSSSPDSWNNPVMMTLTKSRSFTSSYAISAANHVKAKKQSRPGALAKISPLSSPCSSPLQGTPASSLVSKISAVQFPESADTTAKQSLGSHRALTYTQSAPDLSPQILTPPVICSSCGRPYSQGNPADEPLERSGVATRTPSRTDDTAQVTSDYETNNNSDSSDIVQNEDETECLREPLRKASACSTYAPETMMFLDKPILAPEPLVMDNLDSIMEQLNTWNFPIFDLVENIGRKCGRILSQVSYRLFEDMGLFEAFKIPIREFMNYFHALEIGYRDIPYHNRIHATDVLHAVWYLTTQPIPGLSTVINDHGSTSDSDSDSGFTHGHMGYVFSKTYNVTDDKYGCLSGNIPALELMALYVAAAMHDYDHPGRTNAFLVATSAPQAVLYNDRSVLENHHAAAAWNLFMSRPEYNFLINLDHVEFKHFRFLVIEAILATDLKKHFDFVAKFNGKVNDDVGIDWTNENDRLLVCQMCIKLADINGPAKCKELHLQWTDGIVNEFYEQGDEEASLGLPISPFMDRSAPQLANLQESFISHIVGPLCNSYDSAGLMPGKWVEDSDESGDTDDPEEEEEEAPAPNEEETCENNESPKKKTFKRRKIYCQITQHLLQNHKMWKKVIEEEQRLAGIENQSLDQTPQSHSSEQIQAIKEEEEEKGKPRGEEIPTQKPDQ

[6] = target: Glutamate receptor ionotropic, NMDA 1 (Rattus norvegicus, UniProt P35439)
[7] = target: Gamma-aminobutyric acid receptor subunit alpha-1 (Rattus norvegicus, UniProt P62813)
Chain of Gamma-aminobutyric acid receptor subunit alpha-1 (P62813 whole entry): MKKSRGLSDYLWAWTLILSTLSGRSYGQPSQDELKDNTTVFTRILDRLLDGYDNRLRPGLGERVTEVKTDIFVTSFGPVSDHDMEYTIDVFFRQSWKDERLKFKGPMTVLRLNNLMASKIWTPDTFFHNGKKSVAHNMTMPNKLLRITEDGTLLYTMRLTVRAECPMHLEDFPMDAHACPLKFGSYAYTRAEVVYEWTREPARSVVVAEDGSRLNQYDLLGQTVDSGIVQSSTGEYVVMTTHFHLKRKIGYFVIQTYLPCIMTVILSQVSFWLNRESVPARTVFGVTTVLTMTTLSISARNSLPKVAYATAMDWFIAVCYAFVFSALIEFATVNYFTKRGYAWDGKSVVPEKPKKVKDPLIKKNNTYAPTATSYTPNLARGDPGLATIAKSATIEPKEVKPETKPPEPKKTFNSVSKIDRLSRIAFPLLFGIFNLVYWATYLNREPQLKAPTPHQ
Note: assay procedure not described here.

SMILES	AC50 [1] [µM]	AC50 (D(1A) dopamine receptor) [µM]	AC50 [2] [µM]	AC50 [3] [µM]	AC50 [4] [µM]	AC50 [5] [µM]	AC50 [6] [µM]	AC50 [7] [µM]
CC(=O)Oc1c(C)c(C)c2c(c1C)CC[C@@](C)(CCC[C@H](C)CCC[C@H](C)CCCC(C)C)O2	> 30	> 30	> 30	> 30	> 30			
CC[C@@H](C(N)=O)N1CCCC1=O	> 30	> 30	> 30	> 30	> 30	> 30	> 30	
CCOC(=O)[C@H](CCc1ccccc1)N[C@@H](C)C(=O)N1CC2(C[C@H]1C(=O)O)SCCS2	> 30	> 30	> 30	> 30	> 30			
CC(=O)c1ccc2c(c1)N(CCCN(C)C)c1ccccc1S2 [ACEPROMAZINE]	0.418	0.0259	> 30	> 30	0.248			
C[S+](CC[C@H](N)C(=O)[O-])C[C@H]1O[C@@H](n2cnc3c(N)ncnc32)[C@H](O)[C@@H]1O (some centres undefined) [ADEMETIONINE]	> 30	> 30		> 30	> 30			> 30
CCC(C)(C)c1ccc(CC(C)CN2C[C@@H](C)O[C@@H](C)C2)cc1 (some centres undefined) [AMOROLFINE]	> 30	> 30		> 30	> 30			> 30
N=c1ccn2c(n1)O[C@H]1[C@H](O)[C@@H](CO)O[C@H]12 [ANCITABINE]	> 30	> 30	> 30	> 30	> 30			
CCCNC(C)C(=O)Nc1c(C)csc1C(=O)OC (centres undefined) [ARTICAINE]	> 30	> 30	> 30	> 30				
NC(=O)C[C@H](N)C(=O)O [ASPARAGINE]	> 30	> 30		> 30	> 30			> 30
CCCC1O[C@@H]2C[C@H]3[C@@H]4CCC5=CC(=O)C=C[C@]5(C)[C@H]4[C@@H](O)C[C@]3(C)[C@]2(C(=O)CO)O1 (some centres undefined) [BUDESONIDE]	> 30	> 30	> 30	> 30	> 30	> 30	> 10	
C=CCN1C[C@H](C(=O)N(CCCN(C)C)C(=O)NCC)C[C@@H]2c3cccc4[nH]cc(c34)C[C@H]21 [CABERGOLINE]		0.648	> 30	0.142	0.0083	> 30	> 10	
CC(C)(C)C(=O)C(Oc1ccc(Cl)cc1)n1ccnc1 (centres undefined) [CLIMBAZOLE]	> 30	> 30	> 30	> 30	> 30			
Clc1ccc(C(OCCN2CCCCC2)c2ccccc2)cc1 (centres undefined) [CLOPERASTINE]	2.72	5.96		> 30	20.1			> 30
CN(C)CCC=C1c2ccccc2C=Cc2ccccc21 [CYCLOBENZAPRINE]						> 30	> 10	
NNc1nnc(NN)c2ccccc12 [DIHYDRALAZINE]	> 30	> 30	> 30	> 30	> 30			
CC(C)C[C@H]1C(=O)N2CCC[C@H]2[C@]2(O)O[C@](NC(=O)[C@@H]3C[C@@H]4c5cccc6[nH]cc(c56)C[C@H]4N(C)C3)(C(C)C)C(=O)N12 [DIHYDROERGOCRYPTINE]	0.847	0.597	> 30	5.77	0.0125			
CN(C)CC/C=C1\c2ccccc2CSc2ccccc21 [DOTHIEPIN]						> 30	> 30	

SMILES	AC50 [1] [µM]	AC50 (D(1A) dopamine receptor) [µM]	AC50 [2] [µM]	AC50 [3] [µM]	AC50 [4] [µM]	AC50 [5] [µM]	AC50 [6] [µM]	AC50 [7] [µM]
CCN(CC)CCOC(=O)C(c1ccccc1)C1CCCCC1 (centres undefined) [DROFENINE]	24.1	13.7	> 30	> 30	2.71			
COc1ccc(C(=O)Nc2ccccc2CCC2CCCCN2C)cc1 (centres undefined) [ENCAINIDE]	> 30	26.9		> 30	> 30	> 30	> 10	> 30
NC1=NCC2c3ccccc3Cc3ccccc3N12 (centres undefined) [EPINASTINE]	0.253	0.125	28.3	> 30	1.28			
CC(=O)Oc1ccc2c(c1)CC[C@@H]1[C@@H]2CC[C@]2(C)[C@@H](O)CC[C@@H]12 [ESTRADIOL ACETATE]	> 30	> 30	> 30	> 30	> 30			
O=c1[nH]c(=O)n([C@H]2C[C@H](O)[C@@H](CO)O2)cc1F [FLOXURIDINE]	> 30	> 30	> 30	> 30	> 30			
CCN(CC)CCNc1ccc(CO)c2sc3ccccc3c(=O)c12 [HYCANTHONE]	1.73	> 30		> 30	7.25			> 30
O=c1[nH]c(=O)n([C@H]2C[C@H](O)[C@@H](CO)O2)cc1I [IDOXURIDINE]	> 30	> 30	> 30	> 30	> 30			
COc1ccc2c(c1)N(C[C@H](C)CN(C)C)c1ccccc1S2 [LEVOMEPROMAZINE]			> 30		2.84			
Cc1cc(OP(=O)(O)O)c2ccccc2c1OP(=O)(O)O [MENADIOL SODIUM DIPHOSPHATE]	> 30	> 30		> 30	> 30			> 30
Cc1ccccc1OCC(O)CO (centres undefined) [MEPHENESIN]	> 30	> 30		> 30	> 30			> 10
CCN(CC)CCc1nc(-c2ccccc2)no1 [OXOLAMINE]	> 30	> 30		> 30	15.5			> 30
CC(C)COC(=O)OCN1C(=O)CN(CCN2CC(=O)N(COC(=O)OCC(C)C)C(=O)C2)CC1=O [SOBUZOXANE]	> 30	> 30		> 30	> 30			> 30
Cc1cc(NS(=O)(=O)c2ccc(N)cc2)nc(C)n1 [SULFISOMIDINE]	> 30	> 30		> 30	> 30			> 30
O=c1[nH]c(=O)n(C2CCCO2)cc1F (centres undefined) [TEGAFUR]	> 30	> 30		> 30	> 30			> 30
COc1cc2c3cc1Oc1cc(ccc1O)C[C@@H]1c4c(cc(OC)c(O)c4Oc4ccc(cc4)C[C@@H]3N(C)CC2)CC[N+]1(C)C [TUBOCURARINE]	> 30	> 30	> 30	> 30	> 30			
OC[C@@H](O)[C@H](O)[C@@H](O)CO [XYLITOL]	> 30	> 30	> 30	> 30	> 30			
CN(C)CCc1c[nH]c2ccc(C[C@H]3COC(=O)N3)cc12 [ZOLMITRIPTAN]						> 30	> 30	
